Experiment [1] has as its target T1, AHR (Mus musculus, UniProt P30561).
T1 sequence (P30561 1-848 P471L/N533S/M589L): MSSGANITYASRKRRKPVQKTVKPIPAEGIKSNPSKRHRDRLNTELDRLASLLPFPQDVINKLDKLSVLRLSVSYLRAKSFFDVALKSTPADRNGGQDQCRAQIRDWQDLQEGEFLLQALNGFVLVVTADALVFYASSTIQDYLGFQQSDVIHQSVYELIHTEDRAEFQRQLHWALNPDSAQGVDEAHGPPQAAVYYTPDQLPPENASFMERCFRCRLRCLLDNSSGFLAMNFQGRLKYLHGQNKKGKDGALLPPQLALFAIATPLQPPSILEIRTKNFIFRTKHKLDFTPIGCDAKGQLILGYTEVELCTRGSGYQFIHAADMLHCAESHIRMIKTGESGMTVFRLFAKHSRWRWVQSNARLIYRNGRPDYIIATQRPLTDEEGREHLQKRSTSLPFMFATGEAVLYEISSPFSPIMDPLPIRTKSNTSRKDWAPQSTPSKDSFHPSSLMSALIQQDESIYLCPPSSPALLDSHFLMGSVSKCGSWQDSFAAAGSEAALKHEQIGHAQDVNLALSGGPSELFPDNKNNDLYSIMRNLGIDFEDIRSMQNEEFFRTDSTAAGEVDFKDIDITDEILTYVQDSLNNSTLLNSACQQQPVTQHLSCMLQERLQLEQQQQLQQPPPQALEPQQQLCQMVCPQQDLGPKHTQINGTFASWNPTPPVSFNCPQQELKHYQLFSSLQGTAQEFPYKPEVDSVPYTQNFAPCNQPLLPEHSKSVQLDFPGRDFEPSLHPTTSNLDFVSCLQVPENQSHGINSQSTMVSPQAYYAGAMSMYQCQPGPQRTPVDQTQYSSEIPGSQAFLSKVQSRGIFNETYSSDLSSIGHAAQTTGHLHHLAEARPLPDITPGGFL
Kind of experiment: In vitro assay 3: antagonism in mouse cell line (AHR transactivation, firefly luciferase reporter, kynurenic acid prestimulated). It is filed as cell-based. Summed up: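 Cells were first stimulated with kynurenic acid, then exposed to test compound, after which firefly luciferase from a DRE-containing AHR reporter was read out. Signal was scaled between positive and negative controls. Cells not given kynurenic acid provided the inhibition reference.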
Background: Reporter assays use an easily measured gene product as a stand-in for the process of interest.

Experiment [2] addresses T2, AHR (Homo sapiens, UniProt P35869).
T2 construct: U87 MG glioblastoma cells (ATCC #HTB-14) endogenously expressing AHR; endogenous in cells; host or cells: U87 MG glioblastoma cells (ATCC #HTB-14)
T2 sequence (P35869 11-848): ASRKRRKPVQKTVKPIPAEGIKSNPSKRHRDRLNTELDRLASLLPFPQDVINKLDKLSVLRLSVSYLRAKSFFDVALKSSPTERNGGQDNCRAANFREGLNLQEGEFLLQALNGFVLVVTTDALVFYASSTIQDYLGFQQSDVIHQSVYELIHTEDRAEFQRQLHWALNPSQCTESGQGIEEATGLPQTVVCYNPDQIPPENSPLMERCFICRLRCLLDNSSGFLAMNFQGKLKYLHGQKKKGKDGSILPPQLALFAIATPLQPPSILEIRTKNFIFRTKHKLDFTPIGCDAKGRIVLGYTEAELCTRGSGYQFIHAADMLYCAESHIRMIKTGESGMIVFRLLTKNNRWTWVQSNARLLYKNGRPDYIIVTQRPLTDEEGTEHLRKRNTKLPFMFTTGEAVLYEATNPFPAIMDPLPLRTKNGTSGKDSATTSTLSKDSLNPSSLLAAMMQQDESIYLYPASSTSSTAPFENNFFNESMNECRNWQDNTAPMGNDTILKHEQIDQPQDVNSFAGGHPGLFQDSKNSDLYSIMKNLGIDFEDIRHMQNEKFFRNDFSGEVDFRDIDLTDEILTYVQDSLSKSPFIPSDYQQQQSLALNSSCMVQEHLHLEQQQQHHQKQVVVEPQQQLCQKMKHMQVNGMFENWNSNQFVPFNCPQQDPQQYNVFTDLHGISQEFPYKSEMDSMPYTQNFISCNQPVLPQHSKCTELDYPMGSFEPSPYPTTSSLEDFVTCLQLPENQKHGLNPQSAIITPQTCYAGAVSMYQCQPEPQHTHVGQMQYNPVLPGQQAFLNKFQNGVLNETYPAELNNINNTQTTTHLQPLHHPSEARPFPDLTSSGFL
Kind of experiment: In vitro assay 1: antagonism in human cell line (AHR transactivation, firefly luciferase reporter, kynurenic acid prestimulated). It is filed as cell-based. Particulars: AHR Antagonism Human IC50 [M], firefly luciferase reporter. In a few lines: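 U87 MG + DRE-firefly/constitutive-Renilla stable reporters; kynurenic acid prestim; dual-luc read; Renilla = tox; normalized vs pos/neg controls (pos: 150 μM KYNA + 5 μM staurosporine).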

[3] abbreviates: Hepa 1c1c7 cells, 200 μM kynurenic acid, 20 hours, firefly luciferase reporter, read-out: AHR Antagonism Mouse IC50.

Where two headings read alike, the source gives them in different places.

A word on the IC50: it is the concentration that gives 50% inhibition. In the case of `COc1ccc(-c2nc3c4cccc(Br)c4nc(N[C@@H](C(=O)NCCN4CCN(C)CC4)C(C)C)n3n2)cc1` [Example 924, N^2-[7-bromo-2-(4-methoxyphenyl)[1,2,4]triazolo[1,5-c]quinazolin-5-yl]-N-[2-(4-methylpiperazin-1-yl)ethyl]-D-valinamide], the values for the concentration for half-maximal inhibition (IC50) in experiment [1] (setting [3]) and in experiment [2] were 3.8 nM and 6.71e-09 M, respectively.

For `COc1ccc(-c2nc3c4cccc(Br)c4nc(N[C@@H](C(=O)N4CCOCC4)C(C)C)n3n2)cc1` [Example 925, (2R)-2-{[7-bromo-2-(4-methoxyphenyl)[1,2,4]triazolo[1,5-c]quinazolin-5-yl]amino}-3-methyl-1-(morpholin-4-yl)butan-1-one], the IC50 turned out to be 4.14 nM in experiment [1] (setting [3]) and 6.08e-09 M in experiment [2].

On to `CC(C)[C@@H](Nc1nc2c(Br)cccc2c2nc(-c3cnn(C)c3)nn12)C(=O)N1CCOCC1` [Example 926, (2R)-2-{[7-bromo-2-(1-methyl-1H-pyrazol-4-yl)[1,2,4]triazolo[1,5-c]quinazolin-5-yl]amino}-3-methyl-1-(morpholin-4-yl)butan-1-one], for which the IC50 was determined as 6.16 nM in experiment [1] (setting [3]) and 3.45e-08 M in experiment [2].

Consider `CC(C)[C@@H](Nc1nc2c(Br)cccc2c2nc(-c3cnn(C)c3)nn12)C(=O)NCCN1CCN(C)CC1` [Example 927, N^2-[7-bromo-2-(1-methyl-1H-pyrazol-4-yl)[1,2,4]triazolo[1,5-c]quinazolin-5-yl]-N-[2-(4-methylpiperazin-1-yl)ethyl]-D-valinamide], for which the IC50 turned out to be 34.4 nM in experiment [1] (setting [3]) and 6.5e-08 M in experiment [2].

On to `CC(C)[C@@H](Nc1nc2c(Br)cccc2c2nc(-c3cnn(C)c3)nn12)C(=O)N1CCN(C)CC1` [Example 928, (2R)-2-{[7-bromo-2-(1-methyl-1H-pyrazol-4-yl)[1,2,4]triazolo[1,5-c]quinazolin-5-yl]amino}-3-methyl-1-(4-methylpiperazin-1-yl)butan-1-one], for which the IC50 in experiment [1] (setting [3]) stood at 5.76 nM; in experiment [2], 1.81e-08 M.

`COCCNC(=O)[C@H](Nc1nc2c(Br)cccc2c2nc(-c3cnn(C)c3)nn12)C(C)C` [Example 929, N^2-[7-bromo-2-(1-methyl-1H-pyrazol-4-yl)[1,2,4]triazolo[1,5-c]quinazolin-5-yl]-N-(2-methoxyethyl)-D-valinamide]: the IC50 in experiment [1] (setting [3]) came out at 10.9 nM; in experiment [2], 3.93e-08 M.

Take `Cn1cc(-c2nc3c4cccc(C#N)c4nc(N[C@@H]4CNCCNC4=O)n3n2)cn1` [Example 930, 2-(1-methyl-1H-pyrazol-4-yl)-5-{[(6R)-5-oxo-1,4-diazepan-6-yl]amino}[1,2,4]triazolo[1,5-c]quinazoline-7-carbonitrile]: the figures for the IC50 in experiment [1] (setting [3]) and in experiment [2] were 14100 nM and 5.21e-06 M, respectively.

Consider `CC(C)n1cc(-c2nc3c4cccc(C#N)c4nc(N[C@@H]4CNCCNC4=O)n3n2)cn1` [Example 931, 5-{[(6R)-5-oxo-1,4-diazepan-6-yl]amino}-2-[1-(propan-2-yl)-1H-pyrazol-4-yl][1,2,4]triazolo[1,5-c]quinazoline-7-carbonitrile], for which the values for the IC50 in experiment [1] (setting [3]) and in experiment [2] were 297 nM and 1.3e-07 M, respectively.

On to `N#Cc1cccc2c1nc(N[C@@H]1CNCCNC1=O)n1nc(-c3cnn(C4CC4)c3)nc21` [Example 932, 2-(1-cyclopropyl-1H-pyrazol-4-yl)-5-{[(6R)-5-oxo-1,4-diazepan-6-yl]amino}[1,2,4]triazolo[1,5-c]quinazoline-7-carbonitrile], for which the IC50 in experiment [1] (setting [3]) came out at 173 nM; in experiment [2], 1.48e-07 M.

`N#Cc1cccc2c1nc(N[C@@H]1CNCCNC1=O)n1nc(-c3cnn(C4CCC4)c3)nc21` [Example 933, 2-(1-cyclobutyl-1H-pyrazol-4-yl)-5-{[(6R)-5-oxo-1,4-diazepan-6-yl]amino}[1,2,4]triazolo[1,5-c]quinazoline-7-carbonitrile]: the values for the IC50 in experiment [1] (setting [3]) and in experiment [2] were 138 nM and 7.39e-08 M, respectively.

On to `N#Cc1cccc2c1nc(N[C@@H]1CNCCNC1=O)n1nc(-c3cnn(C(F)F)c3)nc21` [Example 934, 2-[1-(difluoromethyl)-1H-pyrazol-4-yl]-5-{[(6R)-5-oxo-1,4-diazepan-6-yl]amino}[1,2,4]triazolo[1,5-c]quinazoline-7-carbonitrile], for which the IC50 in experiment [1] (read-out: AHR Antagonism Mouse IC50, Hepa 1c1c7 cells, 200 μM kynurenic acid, 20 hours, firefly luciferase reporter) came out at 116 nM; in experiment [2], 2.39e-07 M.

Consider `N#Cc1cccc2c1nc(N[C@@H]1CNCCNC1=O)n1nc(-c3cn[nH]c3)nc21` [Example 935, 5-{[(6R)-5-oxo-1,4-diazepan-6-yl]amino}-2-(1H-pyrazol-4-yl)[1,2,4]triazolo[1,5-c]quinazoline-7-carbonitrile], for which the values for the half-maximal inhibitory concentration (IC50) in experiment [1] (setting [3]) and in experiment [2] were 1120 nM and 4.72e-06 M, respectively.

Take `COc1ccc(-c2nc3c4cccc(S(C)(=O)=O)c4nc(N[C@@H]4CNCCNC4=O)n3n2)cc1` [Example 936, (6R)-6-{[7-(methanesulfonyl)-2-(4-methoxyphenyl)[1,2,4]triazolo[1,5-c]quinazolin-5-yl]amino}-1,4-diazepan-5-one]: the 50% inhibitory concentration (IC50) was 66.9 nM in experiment [1] (setting [3]) and 1.27e-08 M in experiment [2].

Regarding `Cn1cc(-c2nc3c4cccc(S(C)(=O)=O)c4nc(N[C@@H]4CNCCNC4=O)n3n2)cn1` [Example 937, (6R)-6-{[7-(methanesulfonyl)-2-(1-methyl-1H-pyrazol-4-yl)[1,2,4]triazolo[1,5-c]quinazolin-5-yl]amino}-1,4-diazepan-5-one], the IC50 was above 20000 nM in experiment [1] (setting [3]) and above 2e-05 M in experiment [2].

On to `CCSc1cccc2c1nc(N[C@@H]1CNCCNC1=O)n1nc(-c3cnn(C)c3)nc21` [Example 938], for which the IC50 worked out at 5550 nM in experiment [1] (setting [3]) and 4.23e-07 M in experiment [2].

Regarding `CCSc1cccc2c1nc(N[C@@H]1CNCCNC1=O)n1nc(-c3ccc(OC)cc3)nc21` [Example 939, (6R)-6-{[7-(ethylsulfanyl)-2-(4-methoxyphenyl)[1,2,4]triazolo[1,5-c]quinazolin-5-yl]amino}-1,4-diazepan-5-one], the IC50 is 22.5 nM in experiment [1] (setting [3]) and 1.19e-08 M in experiment [2].

As to `CCS(=O)(=O)c1cccc2c1nc(N[C@@H]1CNCCNC1=O)n1nc(-c3ccc(OC)cc3)nc21` [Example 940, (6R)-6-{[7-(ethanesulfonyl)-2-(4-methoxyphenyl)[1,2,4]triazolo[1,5-c]quinazolin-5-yl]amino}-1,4-diazepan-5-one], the IC50 in experiment [1] (setting [3]) stood at 57 nM; in experiment [2], 1.79e-08 M.

Turning to `COc1ccc(-c2nc3c4cccc(S(=O)(=O)C(C)C)c4nc(N[C@@H]4CNCCNC4=O)n3n2)cc1` [Example 941, (6R)-6-{[2-(4-methoxyphenyl)-7-(propan-2-sulfonyl)[1,2,4]triazolo[1,5-c]quinazolin-5-yl]amino}-1,4-diazepan-5-one], the IC50 was found to be 67.5 nM in experiment [1] (setting [3]) and 3.61e-08 M in experiment [2].

On to `CCS(=O)(=O)c1cccc2c1nc(N[C@@H]1CNCCNC1=O)n1nc(-c3cnn(C)c3)nc21` [Example 942, (6R)-6-{[7-(ethanesulfonyl)-2-(1-methyl-1H-pyrazol-4-yl)[1,2,4]triazolo[1,5-c]quinazolin-5-yl]amino}-1,4-diazepan-5-one], for which the IC50 in experiment [1] (setting [3]) was 4750 nM; in experiment [2] it was 7.67e-07 M.

The values are drawn from patent publication US20230113037A1 (Bayer Aktiengesellschaft, priority 2019, published 2023).
